Where two headings read alike, the source gives them in different places.
How the values were obtained:
[1] = system: MCF-7, HCT116, and A2780 cancer cell lines; assay: MTT assay, three cancer cell lines taken together (average, overall range); type: cell-based, human; settings: for IC50: Homo sapiens
Protocol: Cells from flasks of 70–80% confluency were separately seeded in 96-well flat-bottom microculture plates (Nalgene-Nunc, Thermo Fisher Scientific, Roskilde, Denmark) at a density of 3 × 10^3 cells (MCF-7, A2780, and MRC-5), 1 × 10^4 cells (HCT116), to a volume of 180 μL/well of culture medium. […] The final concentrations of each compound in wells were: 0–50 μM in 200 μL of media (DMSO 0.1%). Lapatinib (Cayman, Ann Arbor, MI) was used as a positive control at the same final concentrations. Medium only (20 μL) was added to each control well, and each concentration was tested in triplicates (n = 3). Following incubation for 72 h, 50 μL MTT was added into each well. Plates were incubated for 3 h, the supernatant was aspirated, and 100 μL of DMSO was added to each well. The optical density (OD) of the purple formazan is proportional to the number of viable cells. […] The absorbance of the reduced MTT was determined using a microplate reader A570 nm.

MCF-7 = assay: MTT cell proliferation assay; type: cell-based, human; settings: for IC50: Homo sapiens, MCF7, MTT, 72 h treatment, n = 3, read-out: IC50 (µM ± SD) MCF-7; for Selectivity index MCF-7: IC50 MRC-5 / IC50 MCF-7
Protocol: (§1) MCF-7 (human breast adenocarcinoma), A2780 (human ovarian cancer) and HCT116 (human colorectal carcinoma), and MRC-5 (normal foetal lung fibroblast) cell lines were bought from the ATCC and were cultured in flasks which were incubated at 37 °C in an atmosphere of 5% CO2, 95% air, and 100% relative humidity, to maintain continuous logarithmic growth. MCF-7, A2780, and HCT116 were maintained in RPMI-1640 media (100 U/mL penicillin, 100 µg/mL streptomycin, and 10% foetal bovine serum, Gibco, Carlsbad, CA). MRC-5 cells were maintained in EMEM (100 U/mL penicillin, 100 µg/mL streptomycin, and 10% foetal bovine serum, Gibco, Carlsbad, CA). Doxorubicin (5 μg/mL, for three months) added for RPMI-1640 media containing MCF7 cells was used to develop doxorubicin-resistant MCF7/ADR cells. All cancer and normal cell lines were cultured according to our previous report. Cells were used within 10–20 passages and were checked for mycoplasma every 6 months, by measuring the bioluminescence (Myco Alert sample detection kit; Lonza, Basel, Switzerland) using the multiplate reader (Synergy HT, BioTek, Winooski, VT).
(§2) The MTT assay was used to measure the cytotoxicity and growth inhibitory activities and cytotoxicity of the new compounds according to our previous report[13]^,[17]. Cells from flasks of 70–80% confluency were separately seeded in 96-well flat-bottom microculture plates (Nalgene-Nunc, Thermo Fisher Scientific, Roskilde, Denmark) at a density of 3 × 10^3 cells (MCF-7, A2780, and MRC-5), 1 × 10^4 cells (HCT116), to a volume of 180 μL/well of culture medium. A Neubauer haemocytometer was used for cell counting. Cells were incubated at 37 °C overnight to allow attachment to the wells. The final concentrations of each compound in wells were: 0–50 μM in 200 μL of media (DMSO 0.1%). Lapatinib (Cayman, Ann Arbor, MI) was used as a positive control at the same final concentrations. Medium only (20 μL) was added to each control well, and each concentration was tested in triplicates (n = 3). Following incubation for 72 h, 50 μL MTT was added into each well. Plates were incubated for 3 h, the supernatant was aspirated, and 100 μL of DMSO was added to each well. The optical density (OD) of the purple formazan is proportional to the number of viable cells. […] GraphPad Prism version 5.00 for Windows was used for analysis (La Jolla, CA). Cytotoxicity of the new compounds was calculated after treatment of cancer/normal cell lines for 72 h. The absorbance of the reduced MTT was determined using a microplate reader A570 nm.
(§3) The cytotoxic activity of the new compounds (15a–e, 16a–e, 20, and 21) was evaluated in vitro using MTT assay. The MTT assay depends on the reduction of the yellow tetrazole dye (MTT) to the purple formazan by the active mitochondrial dehydrogenase enzymes indicating the viability of the cells which can be measured as OD. The new compounds were evaluated against three non-resistant cancer cell lines: MCF-7, and A2780 cell lines were selected to compare cytotoxicity of the new compounds with the previously reported results of compounds 9a,b[13]. Cytotoxicity of the new compounds was also evaluated also against HCT116 cells which lacks COX-2 protein[33]^,[34].

A2780 = assay: MTT cell proliferation assay; type: cell-based, human; settings: for IC50: Homo sapiens, A2780, MTT, 72 h treatment, n = 3, read-out: IC50 (µM ± SD) A2780; for Selectivity index A2780: IC50 MRC-5 / IC50 A2780
Protocol: as §1, §2, §3

HCT116 = assay: MTT cell proliferation assay; type: cell-based, human; settings: for IC50: Homo sapiens, HCT-116, MTT, 72 h treatment, n = 3, read-out: IC50 (µM ± SD) HCT116; for Selectivity index HCT116: IC50 MRC-5 / IC50 HCT116
Protocol: as §1, §2, §3

normal MRC-5 cells = assay: MTT assay, normal cells (cytotoxic selectivity); type: cell-based; settings: Homo sapiens, MRC5, 72 h treatment, n = 3, read-out: IC50 (µM ± SD) MRC-5
Protocol: as §1, §2
Selectivity towards cancerous cells is one of the important issues which must be considered during the discovery and development of new anticancer agents. To assess the toxicity and selectivity of the new compounds (15a–e, 16a–e, 20, and 21), their growth inhibitory activities against normal human foetal lung fibroblast MRC-5 cells were evaluated using the MTT assay. […] The selectivity of the new compounds towards each of the three cancer cell lines was calculated by dividing their IC50 values against normal MRC-5 cells by their IC50 values against the corresponding cancer cell line (Table 3).

porcine tubulin = biological target: T1, porcine tubulin (Sus scrofa, UniProt P02550+P02554); assay: Tubulin polymerisation fluorescence-based assay; type: biochemical; settings: 0.5 μM, positive control (inhibitor)
T1 construct: purchased Cytoskeleton Inc., Denver, CO BK011P
Protocol: The effect of compounds 16a,b,d on tubulin polymerisation was measured in vitro using tubulin polymerisation fluorescence-based assay (cytoskeleton, cat. BK011P, https://www.cytoskeleton.com/bk011p). The assay was performed following the previous report[22] and according to the manufacturer’s instructions. Briefly, 2 mg/mL porcine tubulin was dissolved in buffer 1 (80 mM PIPES, 2 mM MgCl2, 0.5 mM EGTA pH 6.9, 10 µM fluorescent reporter, 1 mM GTP, 15% glycerol) to a final concentration of […]. Then tubulin solution was transferred to a pre-warmed 96-well plate that contained the test compounds 16a,b,d (5 μM), paclitaxel (3 μM), CaCl2 (0.5 μM), and control buffer. The polymerisation of tubulin was monitored as fluorescence at 37 °C for 60 min. Relative fluorescence units (RFU) were determined at 360 nm for excitation and at 460 nm for emission using the Varioskan Flash spectral scanning multimode reader (Thermo Fisher Scientific, Roskilde, Denmark) at a reading speed of 1 cycle/min.
In the current study, the new compounds were designed bearing the trimethoxy phenyl moiety aiming to obtain new cytotoxic agents that can interfere with tubulin polymerisation in cancer cells. […] In this assay, light scattering by microtubules which is directly proportional to the concentration of the microtubule polymer was used as a measure of tubulin polymerisation. The study was performed using a fluorescence-based tubulin polymerisation assay kit (Cytoskeleton Inc., Denver, CO; Cat # BK011P) following the manufacturer’s instructions (https://www.cytoskeleton.com/bk011p) and according to the previous report.
Paclitaxel (3 μM) was used as a tubulin polymerisation enhancer (positive control, enhancer), while calcium chloride (CaCl2, 0.5 μM) was used as a positive control (inhibitor) as per the manufacturer’s instructions (https://www.cytoskeleton.com/pdf-storage/datasheets/bk011p.pdf). The vehicle was also used to evaluate the polymerisation when tubulin is incubated in the absence of the test compound. The effect of the selected compounds (5 μM) on tubulin polymerisation was evaluated and compared with those of the positive control. The results are represented in Figure 8.

[2] = MCF-7, HCT116, A2780, read-out: Average of the three IC50 values against the three cancer cell lines

T1 sequence (P02550 whole entry): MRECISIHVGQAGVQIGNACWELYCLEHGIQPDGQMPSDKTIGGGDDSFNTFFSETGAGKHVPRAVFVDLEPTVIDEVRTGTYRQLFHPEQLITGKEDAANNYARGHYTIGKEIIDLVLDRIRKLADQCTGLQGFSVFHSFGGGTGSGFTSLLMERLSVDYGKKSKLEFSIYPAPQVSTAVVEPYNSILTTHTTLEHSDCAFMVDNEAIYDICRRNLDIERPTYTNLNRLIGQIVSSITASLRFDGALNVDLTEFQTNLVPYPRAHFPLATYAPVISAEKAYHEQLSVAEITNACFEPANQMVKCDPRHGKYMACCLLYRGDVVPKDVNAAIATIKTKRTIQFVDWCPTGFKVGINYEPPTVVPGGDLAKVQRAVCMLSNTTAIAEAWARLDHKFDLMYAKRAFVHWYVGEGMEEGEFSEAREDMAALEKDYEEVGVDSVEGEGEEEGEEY
T1 sequence (P02554 whole entry): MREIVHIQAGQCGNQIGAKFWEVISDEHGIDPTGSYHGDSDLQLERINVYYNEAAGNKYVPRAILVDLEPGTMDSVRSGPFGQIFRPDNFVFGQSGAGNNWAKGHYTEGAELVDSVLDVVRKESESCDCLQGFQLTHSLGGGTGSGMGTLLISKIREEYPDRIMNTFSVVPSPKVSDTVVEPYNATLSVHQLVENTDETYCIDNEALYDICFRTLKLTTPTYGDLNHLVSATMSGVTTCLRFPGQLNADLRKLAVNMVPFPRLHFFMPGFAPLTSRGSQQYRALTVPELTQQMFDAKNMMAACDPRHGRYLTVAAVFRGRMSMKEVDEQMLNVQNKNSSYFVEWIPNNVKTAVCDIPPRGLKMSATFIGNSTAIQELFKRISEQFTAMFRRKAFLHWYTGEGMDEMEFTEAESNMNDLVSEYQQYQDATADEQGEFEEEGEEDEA

| SMILES | IC50 [1, 2] [nM] | melting point [°C] | IC50 (MCF-7) [µM] | IC50 (A2780) [µM] | IC50 (HCT116) [µM] | IC50 ([1]; MTT, 72 h, range over MCF-7, HCT116, A2780, read-out: IC50 against the three cancer cell lines) [nM] | Selectivity index MCF-7 (MCF-7) | Selectivity index A2780 (A2780) | Selectivity index HCT116 (HCT116) | IC50 (normal MRC-5 cells) [µM] | effect on tubulin polymerisation (porcine tubulin) | fold increase in cytotoxicity against the three cancer cell lines ([1]; relative to compound 15a (ring expansion)) |
| --- | --- | --- | --- | --- | --- | --- | --- | --- | --- | --- | --- | --- |
| COc1ccc(NC(=O)c2c(N=Cc3cc(OC)c(OC)c(OC)c3)c(C#N)c3n2CCC3)cc1 [15c, 7-Cyano-N-(4-methoxyphenyl)-6-((3,4,5-trimethoxybenzylidene)amino)-2,3-dihydro-1H-pyrrolizine-5-carboxamide] | 251 | 263 to 265 | 0.616 ± 0.01 | 0.041 ± 0.008 | 0.096 ± 0.015 |  | 3.21 | 48.27 | 20.47 | 1.98 ± 0.561 |  |  |
| COc1cc(C=Nc2c(C#N)c3n(c2C(=O)Nc2ccc(Cl)cc2)CCC3)cc(OC)c1OC [15d, N-(4-Chlorophenyl)-7-cyano-6-((3,4,5-trimethoxybenzylidene)amino)-2,3-dihydro-1H-pyrrolizine-5-carboxamide] | 7450 | 271 to 273 | 21.8 ± 3.18 | 0.07 ± 0.002 | 0.534 ± 0.204 |  | 0.10 | 29.61 | 3.88 | 2.07 ± 0.054 |  |  |
| COc1ccc(NC(=O)c2c(NC(=O)c3cc(OC)c(OC)c(OC)c3)c(C#N)c3n2CCC3)cc1 [16c, 7-Cyano-N-(4-methoxyphenyl)-6-(3,4,5-trimethoxybenzamido)-2,3-dihydro-1H-pyrrolizine-5-carboxamide] | 549 | 259 to 261 | 1.47 ± 0.452 | 0.144 ± 0.012 | 0.032 ± 0.014 |  | 0.45 | 4.62 | 20.78 | 0.665 ± 0.191 |  |  |
| COc1cc(C(=O)Nc2c(C#N)c3n(c2C(=O)Nc2ccc(Br)cc2)CCC3)cc(OC)c1OC [16e, N-(4-Bromophenyl)-7-cyano-6-(3,4,5-trimethoxybenzamido) -2,3-dihydro-1H-pyrrolizine-5-carboxamide] | 483 | 286 to 288 | 0.361 ± 0.039 | 0.914 ± 0.092 | 0.173 ± 0.039 |  | 14.57 | 5.75 | 30.40 | 5.26 ± 1.4 |  |  |
| [Ca+2].[Cl-].[Cl-] [CaCl2, calcium chloride, reference compound] |  |  |  |  |  |  |  |  |  |  | inhibited tubulin polymerisation and reduced the final polymer mass |  |
| COc1cc(C=Nc2c(C#N)c3n(c2C(=O)Nc2ccccc2)CCCC3)cc(OC)c1OC [compound 20, 1-Cyano-N-phenyl-2-((3,4,5-trimethoxybenzylidene)amino)-5,6,7,8-tetrahydroindolizine-3-carboxamide] | 2300 | 247 to 249 | 5.72 ± 0.185 | 0.938 ± 0.116 | 0.247 ± 0.069 |  | 0.27 | 1.62 | 6.14 | 1.52 ± 0.103 |  | 1.4–27.5 fold |
| COc1cc(C(=O)Nc2c(C#N)c3n(c2C(=O)Nc2ccccc2)CCCC3)cc(OC)c1OC [compound 21, 1-Cyano-N-phenyl-2-(3,4,5-trimethoxybenzamido)-5,6,7,8-tetrahydroindolizine-3-carboxamide] | 458 |  | 0.6 ± 0.054 | 0.598 ± 0.039 | 0.176 ± 0.017 |  |  |  |  | 0.584 ± 0.094 |  |  |

The remaining compounds from weak to strong by IC50 [1, 2], led by results:

| IC50 [1, 2] [nM] | melting point [°C] | IC50 (MCF-7) [µM] | IC50 (A2780) [µM] | IC50 (HCT116) [µM] | IC50 ([1]; MTT, 72 h, range over MCF-7, HCT116, A2780, read-out: IC50 against the three cancer cell lines) [nM] | SMILES | Selectivity index MCF-7 (MCF-7) | Selectivity index A2780 (A2780) | Selectivity index HCT116 (HCT116) | IC50 (normal MRC-5 cells) [µM] | effect on tubulin polymerisation (porcine tubulin) | fold increase in cytotoxicity against the three cancer cell lines ([1]; relative to compound 15a (ring expansion)) |
| --- | --- | --- | --- | --- | --- | --- | --- | --- | --- | --- | --- | --- |
| 29700 | 251 to 253 | 35.9 ± 4.44 | 33.4 ± 3.73 | 19.8 ± 7.76 |  | COc1cc(C=Nc2c(C#N)c3n(c2C(=O)Nc2ccc(C)cc2)CCC3)cc(OC)c1OC [15b, 7-Cyano-N-(p-tolyl)-6-((3,4,5-trimethoxybenzylidene)amino) -2,3-dihydro-1H-pyrrolizine-5-carboxamide] | 0.09 | 0.10 | 0.17 | 3.33 ± 1 |  |  |
| 21000 | 242 to 244 | 36.9 ± 4.4 | 25.8 ± 4.99 | 0.353 ± 0.088 |  | COc1cc(C=Nc2c(C#N)c3n(c2C(=O)Nc2ccccc2)CCC3)cc(OC)c1OC [15a, 7-Cyano-N-phenyl-6-((3,4,5-trimethoxybenzylidene)amino)-2,3-dihydro-1H-pyrrolizine-5-carboxamide] | 0.05 | 0.07 | 4.92 | 1.74 ± 0.149 |  |  |
| 8830 |  | 6.69 ± 1.09 | 9.72 ± 0.845 | 10 ± 1.13 | 6690 to 10000 | CS(=O)(=O)CCNCc1ccc(-c2ccc3ncnc(Nc4ccc(OCc5cccc(F)c5)c(Cl)c4)c3c2)o1 [Lapatinib, reference compound] | 2.04 | 1.40 | 1.36 | 13.7 ± 2.9 |  |  |
| 214 | 277 to 280 | 0.187 ± 0.098 | 0.311 ± 0.041 | 0.144 ± 0.049 |  | COc1cc(C=Nc2c(C#N)c3n(c2C(=O)Nc2ccc(Br)cc2)CCC3)cc(OC)c1OC [15e, N-(4-Bromophenyl)-7-cyano-6-((3,4,5-trimethoxybenzylidene)amino)-2,3-dihydro-1H-pyrrolizine-5-carboxamide] | 91.24 | 54.92 | 118.61 | 17.1 ± 0.552 |  |  |
